Results as given in the NIST ThermoML archive (doi:10.1016/j.jct.2011.02.008).
± gives the expanded uncertainty stated by the source.

Test: xn = mol fraction of the nth substance listed
Details: Liquid, Vibrating tube method

COC(=O)c1ccccc1 [methyl benzoate] + CCCCCCO
mass density [kg/m3]
Details | x1 = 0.1004 | x1 = 0.2007 | x1 = 0.3007 | x1 = 0.4013 | x1 = 0.5005 | x1 = 0.6009 | x1 = 0.7 | x1 = 0.8008 | x1 = 0.9009
308.15 K, 20000 kPa | – | – | 900.3 ± 2.4 | 926.9 ± 2.4 | 953.2 ± 2.4 | 979.8 ± 2.4 | 1006.1 ± 2.4 | 1032.8 ± 2.4 | 1059.4 ± 2.4
308.15 K, 25000 kPa | 850.6 ± 2.4 | 877 ± 2.4 | 903.4 ± 2.4 | 930 ± 2.4 | 956.3 ± 2.4 | 982.9 ± 2.4 | 1009.1 ± 2.4 | 1035.8 ± 2.4 | 1062.5 ± 2.4
308.15 K, 30000 kPa | 853.6 ± 2.4 | 879.9 ± 2.4 | 906.4 ± 2.4 | 933 ± 2.4 | 959.3 ± 2.4 | 985.9 ± 2.4 | 1012.1 ± 2.4 | 1038.8 ± 2.4 | 1065.3 ± 2.4
308.15 K, 35000 kPa | 856.5 ± 2.4 | 882.8 ± 2.4 | 909.3 ± 2.4 | 935.9 ± 2.4 | 962.1 ± 2.4 | 988.8 ± 2.4 | 1014.9 ± 2.4 | 1041.7 ± 2.4 | 1068.2 ± 2.4
308.15 K, 40000 kPa | 859.3 ± 2.4 | 885.7 ± 2.4 | 912.1 ± 2.4 | 938.7 ± 2.4 | 965 ± 2.4 | 991.6 ± 2.4 | 1017.7 ± 2.4 | 1044.5 ± 2.4 | 1071 ± 2.4
308.15 K, 45000 kPa | 862.1 ± 2.4 | 888.4 ± 2.4 | 914.9 ± 2.4 | 941.5 ± 2.4 | 967.8 ± 2.4 | 994.3 ± 2.4 | 1020.5 ± 2.4 | 1047.2 ± 2.4 | 1073.7 ± 2.4
308.15 K, 50000 kPa | 864.7 ± 2.4 | 891.1 ± 2.4 | 917.6 ± 2.4 | 944.1 ± 2.4 | 970.5 ± 2.4 | 997.1 ± 2.4 | 1023.2 ± 2.4 | 1049.9 ± 2.4 | 1076.4 ± 2.4
308.15 K, 55000 kPa | 867.4 ± 2.4 | 893.7 ± 2.4 | 920.2 ± 2.4 | 946.8 ± 2.4 | 973.1 ± 2.4 | 999.7 ± 2.4 | 1025.8 ± 2.4 | 1052.5 ± 2.4 | 1079.1 ± 2.4
308.15 K, 60000 kPa | 869.7 ± 2.4 | 896.1 ± 2.4 | 922.6 ± 2.4 | 949.4 ± 2.4 | 975.5 ± 2.4 | 1002.1 ± 2.4 | 1028.2 ± 2.4 | 1055 ± 2.4 | 1081.5 ± 2.4
318.15 K, 100 kPa | 826.4 ± 2.4 | 852.5 ± 2.4 | 878.7 ± 2.4 | 905.1 ± 2.4 | 931.2 ± 2.4 | 957.7 ± 2.4 | 983.9 ± 2.4 | 1010.7 ± 2.4 | 1037.2 ± 2.4
318.15 K, 1000 kPa | 827.1 ± 2.4 | 853.1 ± 2.4 | 879.4 ± 2.4 | 905.8 ± 2.4 | 931.9 ± 2.4 | 958.4 ± 2.4 | 984.6 ± 2.4 | 1011.3 ± 2.4 | 1037.8 ± 2.4
318.15 K, 5000 kPa | 830.1 ± 2.4 | 856.2 ± 2.4 | 882.4 ± 2.4 | 908.7 ± 2.4 | 934.8 ± 2.4 | 961.3 ± 2.4 | 987.5 ± 2.4 | 1014.2 ± 2.4 | 1040.7 ± 2.4
318.15 K, 10000 kPa | 833.8 ± 2.4 | 859.7 ± 2.4 | 886 ± 2.4 | 912.3 ± 2.4 | 938.4 ± 2.4 | 964.9 ± 2.4 | 991 ± 2.4 | 1017.6 ± 2.4 | 1044.1 ± 2.4
318.15 K, 15000 kPa | 837.2 ± 2.4 | 863.2 ± 2.4 | 889.4 ± 2.4 | 915.8 ± 2.4 | 941.8 ± 2.4 | 968.2 ± 2.4 | 994.3 ± 2.4 | 1021 ± 2.4 | 1047.4 ± 2.4
318.15 K, 20000 kPa | 840.6 ± 2.4 | 866.6 ± 2.4 | 892.8 ± 2.4 | 919.1 ± 2.4 | 945.2 ± 2.4 | 971.5 ± 2.4 | 997.6 ± 2.4 | 1024.3 ± 2.4 | 1050.6 ± 2.4
318.15 K, 25000 kPa | 843.8 ± 2.4 | 869.8 ± 2.4 | 896 ± 2.4 | 922.3 ± 2.4 | 948.4 ± 2.4 | 974.6 ± 2.4 | 1000.8 ± 2.4 | 1027.4 ± 2.4 | 1053.8 ± 2.4
